Earlier results in US20160317442A1, “Nanosomal preparation of the complex formed by quercetin (or another flavonol, flavone or a derivative thereof) and 2-hydroxypropyl-beta-cyclodextrin for intravenous use in cerebral pathological conditions” (priority 2013, published 2016).

Conditions: aqueous preparations

O=c1c(O)c(-c2ccc(O)c(O)c2)oc2cc(O)cc(O)c12 [quercetin]
detection of quercetin in the brain: not detected
